Key:
Format in all cases: functional
Malme-3M [1] = experiment: Cytotoxicity against human MALME-3M cells assessed as cell growth at 0.1 uM after 48 hrs by sulforhodamine B assay relative to control; details: read-out: Activity
RPMI-8226 = experiment: Cytotoxicity against human RPMI8226 cells assessed as growth inhibition after 48 hrs by sulforhodamine B assay; details: RPMI-8226, 48 h
OVCAR-8 = experiment: Cytotoxicity against human OVCAR8 cells assessed as growth inhibition after 48 hrs by sulforhodamine B assay; details: OVCAR-8, 48 h
MOLT-4 [2] = experiment: Cytotoxicity against human MOLT4 cells assessed as growth inhibition after 48 hrs by sulforhodamine B assay; details: MOLT-4, 48 h; for CC50: read-out: LC50 (the source's name)
NCI-H460 = experiment: Cytotoxicity against human NCI-H460 cells assessed as growth inhibition after 48 hrs by sulforhodamine B assay; details: NCI-H460, 48 h
A498 = experiment: Cytotoxicity against human A498 cells assessed as cell growth at 10 uM after 48 hrs by sulforhodamine B assay relative to control; details: A498, 48 h, read-out: Activity
UACC-257 [3] = experiment: Cytotoxicity against human UACC257 cells assessed as cell growth at 0.01 uM after 48 hrs by sulforhodamine B assay relative to control; details: UACC-257, 48 h, read-out: Activity
NCI-H226 = experiment: Cytotoxicity against human NCI-H226 cells assessed as cell growth at 0.01 uM after 48 hrs by sulforhodamine B assay relative to control; details: NCI-H226, 48 h, read-out: Activity
SR [4] = experiment: Cytotoxicity against human SR cells assessed as growth inhibition after 48 hrs by sulforhodamine B assay
SR [5] = experiment: Cytotoxicity against human SR cells assessed as cell growth at 0.1 uM after 48 hrs by sulforhodamine B assay relative to control; details: read-out: Activity
UO-31 = experiment: Cytotoxicity against human UO31 cells assessed as cell growth at 0.01 uM after 48 hrs by sulforhodamine B assay relative to control; details: UO-31, 48 h, read-out: Activity
U-251 [6] = experiment: Cytotoxicity against human U251 cells assessed as cell growth at 1 uM after 48 hrs by sulforhodamine B assay relative to control; details: U-251, 48 h, read-out: Activity
MOLT-4 [7] = experiment: Cytotoxicity against human MOLT4 cells assessed as cell growth at 100 uM after 48 hrs by sulforhodamine B assay relative to control; details: MOLT-4, 48 h, read-out: Activity
HCT-116 = experiment: Cytotoxicity against human HCT116 cells assessed as cell growth at 100 uM after 48 hrs by sulforhodamine B assay relative to control; details: HCT-116, 48 h, read-out: Activity
SK-MEL-5 = experiment: Cytotoxicity against human SK-MEL-5 cells assessed as cell growth at 100 uM after 48 hrs by sulforhodamine B assay relative to control; details: SK-MEL-5, 48 h, read-out: Activity
Malme-3M [8] = experiment: Cytotoxicity against human MALME-3M cells assessed as growth inhibition after 48 hrs by sulforhodamine B assay
SK-OV-3 [9] = experiment: Cytotoxicity against human SKOV3 cells assessed as cell growth at 0.1 uM after 48 hrs by sulforhodamine B assay relative to control; details: SK-OV-3, 48 h, read-out: Activity
CCRF-CEM = experiment: Cytotoxicity against human CCRF-CEM cells assessed as cell growth at 1 uM after 48 hrs by sulforhodamine B assay relative to control; details: read-out: Activity
HT-29 = experiment: Cytotoxicity against human HT-29 cells assessed as cell growth at 1 uM after 48 hrs by sulforhodamine B assay relative to control; details: HT-29, 48 h, read-out: Activity
MDA-MB-435 = experiment: Cytotoxicity against human MDA-MB-435 cells assessed as cell growth at 0.1 uM after 48 hrs by sulforhodamine B assay relative to control; details: MDA-MB-435, 48 h, read-out: Activity
SK-OV-3 [10] = experiment: Cytotoxicity against human SKOV3 cells assessed as cell growth at 100 uM after 48 hrs by sulforhodamine B assay relative to control; details: SK-OV-3, 48 h, read-out: Activity
SF-539 = experiment: Cytotoxicity against human SF539 cells assessed as cell growth at 0.1 uM after 48 hrs by sulforhodamine B assay relative to control; details: SF-539, 48 h, read-out: Activity
RXF 393 = experiment: Cytotoxicity against human RXF393 cells assessed as growth inhibition after 48 hrs by sulforhodamine B assay; details: RXF 393, 48 h
BT-549 [11] = experiment: Cytotoxicity against human BT549 cells assessed as cell growth at 100 uM after 48 hrs by sulforhodamine B assay relative to control; details: BT-549, 48 h, read-out: Activity
BT-549 [12] = experiment: Cytotoxicity against human BT549 cells assessed as cell growth at 10 uM after 48 hrs by sulforhodamine B assay relative to control; details: BT-549, 48 h, read-out: Activity
UACC-257 [13] = experiment: Cytotoxicity against human UACC257 cells assessed as cell growth at 10 uM after 48 hrs by sulforhodamine B assay relative to control; details: UACC-257, 48 h, read-out: Activity
HL-60(TB) [14] = experiment: Cytotoxicity against human HL-60(TB) cells assessed as cell growth at 0.1 uM after 48 hrs by sulforhodamine B assay relative to control; details: HL-60, 48 h, read-out: Activity
A549 = experiment: Cytotoxicity against human A549/ATCC cells assessed as cell growth at 100 uM after 48 hrs by sulforhodamine B assay relative to control; details: A549, 48 h, read-out: Activity
HL-60(TB) [15] = experiment: Cytotoxicity against human HL-60(TB) cells assessed as cell growth at 0.01 uM after 48 hrs by sulforhodamine B assay relative to control; details: HL-60, 48 h, read-out: Activity
NCI-H322M = experiment: Cytotoxicity against human NCI-H322M cells assessed as cell growth at 1 uM after 48 hrs by sulforhodamine B assay relative to control; details: read-out: Activity
HCT-15 [16] = experiment: Cytotoxicity against human HCT15 cells assessed as cell growth at 0.01 uM after 48 hrs by sulforhodamine B assay relative to control; details: HCT-15, 48 h, read-out: Activity
ACHN = experiment: Cytotoxicity against human ACHN cells assessed as cell growth at 10 uM after 48 hrs by sulforhodamine B assay relative to control; details: read-out: Activity
U-251 [17] = experiment: Cytotoxicity against human U251 cells assessed as cell growth at 10 uM after 48 hrs by sulforhodamine B assay relative to control; details: U-251, 48 h, read-out: Activity
BT-549 [18] = experiment: Cytotoxicity against human BT549 cells assessed as cell growth at 0.1 uM after 48 hrs by sulforhodamine B assay relative to control; details: BT-549, 48 h, read-out: Activity
HCT-15 [19] = experiment: Cytotoxicity against human HCT15 cells assessed as growth inhibition after 48 hrs by sulforhodamine B assay; details: HCT-15, 48 h
MDA-MB-468 = experiment: Cytotoxicity against human MDA-MB-468 cells assessed as cell growth at 1 uM after 48 hrs by sulforhodamine B assay relative to control; details: MDA-MB-468, 48 h, read-out: Activity

COc1cc2c(cc1OC)C(=O)/C(=C/c1cc(-c3ccc4c(c3)OCO4)n[nH]1)C2
growth at 0.1 µM (Malme-3M [1]): 84%
GI50 (RPMI-8226): 0.23 µM
LC50 (RPMI-8226): 5.52 µM
TGI (RPMI-8226): 0.623 µM
GI50 (OVCAR-8): 1.57 µM
LC50 (OVCAR-8): 5.93 µM
TGI (OVCAR-8): 3.05 µM
GI50 (MOLT-4 [2]): 2.57 µM
TGI (MOLT-4 [2]): 6.97 µM
CC50 (MOLT-4 [2]): > 100 µM
GI50 (NCI-H460): 1.68 µM
LC50 (NCI-H460): 8.57 µM
TGI (NCI-H460): 3.79 µM
growth at 10 µM (A498): -84%
growth at 0.01 µM (UACC-257 [3]): 93%
growth at 0.01 µM (NCI-H226): 97%
GI50 (SR [4]): 0.62 µM
TGI (SR [4]): 4.11 µM
CC50 (SR [4]; read-out: LC50 (the source's name)): > 100 µM
growth at 0.1 µM (SR [5]): 98%
growth at 0.01 µM (UO-31): 86%
growth at 1 µM (U-251 [6]): 56%
growth at 100 µM (MOLT-4 [7]): -17%
growth at 100 µM (HCT-116): -52%
growth at 100 µM (SK-MEL-5): -97%
GI50 (Malme-3M [8]): 1.74 µM
LC50 (Malme-3M [8]): 7.43 µM
TGI (Malme-3M [8]): 3.6 µM
growth at 0.1 µM (SK-OV-3 [9]): 105%
growth at 1 µM (CCRF-CEM): 55%
growth at 1 µM (HT-29): 74%
growth at 0.1 µM (MDA-MB-435): 96%
growth at 100 µM (SK-OV-3 [10]): -97%
growth at 0.1 µM (SF-539): 92%
GI50 (RXF 393): 1.54 µM
LC50 (concentration killing 50% of cells) (RXF 393): 6.62 µM
TGI (RXF 393): 3.19 µM
growth at 100 µM (BT-549 [11]): -87%
growth at 10 µM (BT-549 [12]): -94%
growth at 10 µM (UACC-257 [13]): -96%
growth at 0.1 µM (HL-60(TB) [14]): 95%
growth at 100 µM (A549): -65%
growth at 0.01 µM (HL-60(TB) [15]): 90%
growth at 1 µM (NCI-H322M): 82%
growth at 0.01 µM (HCT-15 [16]): 95%
growth at 10 µM (ACHN): -90%
growth at 10 µM (U-251 [17]): -97%
growth at 0.1 µM (BT-549 [18]): 91%
GI50 (HCT-15 [19]): 1.12 µM
LC50 (HCT-15 [19]): 7.07 µM
TGI (HCT-15 [19]): 2.81 µM
growth at 1 µM (MDA-MB-468): 54%

COc1ccc(C(=O)/C=C/c2cc(-c3ccc(OC)c(OC)c3)n[nH]2)cc1OC
growth at 0.1 µM (Malme-3M [1]): 106%
GI50 (RPMI-8226): 0.357 µM
TGI (RPMI-8226): 2.26 µM
GI50 (OVCAR-8): 2.63 µM
TGI (OVCAR-8): 22.5 µM
GI50 (MOLT-4 [2]): 2.2 µM
TGI (MOLT-4 [2]): > 100 µM
CC50 (MOLT-4 [2]): > 100 µM
GI50 (NCI-H460): 0.606 µM
TGI (NCI-H460): 4.36 µM
growth at 10 µM (A498): -62%
growth at 0.01 µM (UACC-257 [3]): 93%
growth at 0.01 µM (NCI-H226): 94%
growth at 0.1 µM (SR [5]): 81%
growth at 0.01 µM (UO-31): 89%
growth at 1 µM (U-251 [6]): 62%
growth at 100 µM (HCT-116): -45%
growth at 100 µM (SK-MEL-5): -96%
GI50 (Malme-3M [8]): 2.59 µM
TGI (Malme-3M [8]): 6.21 µM
growth at 0.1 µM (SK-OV-3 [9]): 97%
growth at 1 µM (CCRF-CEM): 15%
growth at 1 µM (HT-29): 63%
growth at 0.1 µM (MDA-MB-435): 94%
growth at 100 µM (SK-OV-3 [10]): -8%
growth at 0.1 µM (SF-539): 89%
GI50 (RXF 393): 1.45 µM
TGI (RXF 393): 2.98 µM
growth at 100 µM (BT-549 [11]): -89%
growth at 10 µM (BT-549 [12]): -87%
growth at 10 µM (UACC-257 [13]): -41%
growth at 0.1 µM (HL-60(TB) [14]): 101%
growth at 100 µM (A549): -19%
growth at 0.01 µM (HL-60(TB) [15]): 101%
growth at 1 µM (NCI-H322M): 94%
growth at 0.01 µM (HCT-15 [16]): 96%
growth at 10 µM (ACHN): -54%
growth at 10 µM (U-251 [17]): -85%
growth at 0.1 µM (BT-549 [18]): 89%
GI50 (HCT-15 [19]): 1.09 µM
TGI (HCT-15 [19]): 5.39 µM
growth at 1 µM (MDA-MB-468): 55%

Reference: ChEMBL document CHEMBL4138123, “Design, synthesis and biological evaluation of novel pyrazolochalcones as potential modulators of PI3K/Akt/mTOR pathway and inducers of apoptosis in breast cancer cells” (Eur J Med Chem, 2017)
